Measurements published in ChEMBL document CHEMBL3826924, “Charged Nonclassical Antifolates with Activity Against Gram-Positive and Gram-Negative Pathogens” (ACS Med Chem Lett, 2016).
≈ marks a conversion by molar mass, not a printed value. Calls of active or inactive are those of the source. The calls are words filed in the database; no cut-off is given here.

Experiments:
[1] = test system: Escherichia coli; assay: Antibacterial activity against Escherichia coli ATCC 25922 by alamar blue reagent based micro dilution broth assay; type: functional
[2] = test system: Escherichia coli; assay: Antibacterial activity against Escherichia coli W4573 after 8 hrs; type: functional; conditions: W4573, 8 h
[3] = test system: Staphylococcus aureus; assay: Antibacterial activity against methicillin-resistant Staphylococcus aureus by agar dilution method; type: functional
[4] = test system: Staphylococcus aureus; assay: microbe, parasite or virus in culture; conditions: ATCC 43300, 18 h
[5] = test system: Escherichia coli; assay: Antibacterial activity against Escherichia coli harboring efflux pump deletion mutant after 8 hrs; type: functional
[6] = test system: Escherichia coli; assay: Antibacterial activity against Escherichia coli NR698 harboring imp gene deletion mutant by alamar blue reagent based micro dilution broth assay; type: functional
[7] = test system: Escherichia coli; assay: Antibacterial activity against Escherichia coli harboring ompC gene deletion mutant by alamar blue reagent based micro dilution broth assay; type: functional
[8] = test system: Escherichia coli; assay: Antibacterial activity against Escherichia coli harboring ompF gene deletion mutant by alamar blue reagent based micro dilution broth assay; type: functional
[9] = test system: Escherichia coli; assay: Antibacterial activity against Escherichia coli harboring emrB gene deletion mutant by alamar blue reagent based micro dilution broth assay; type: functional, organism-based
[10] = test system: Escherichia coli; assay: Antibacterial activity against Escherichia coli JW0451 harboring AcrB gene deletion mutant by alamar blue reagent based micro dilution broth assay; type: functional, organism-based
[11] = Cytotoxicity against HDF at 100 uM after 4 hrs by alamar blue assay; conditions: human
[12] = Cytotoxicity against human MCF10A cells after 4 hrs by alamar blue assay; type: cell-based; conditions: MCF-10A
[13] = test system: HepG2; assay: Cytotoxicity against human HepG2 cells at 100 uM after 4 hrs by alamar blue assay; type: cell-based; conditions: hepg2, 4 h
[14] = test system: Escherichia coli; assay: Antibacterial activity against Escherichia coli harboring acrF gene deletion mutant by alamar blue reagent based micro dilution broth assay; type: functional, organism-based
[15] = test system: Escherichia coli; assay: Antibacterial activity against Escherichia coli harboring macB gene deletion mutant by alamar blue reagent based micro dilution broth assay; type: functional, organism-based
[16] = test system: Staphylococcus aureus; assay: Bactericidal activity against Staphylococcus aureus ATCC 43300; type: functional, organism-based
[17] = Ratio of MIC for Escherichia coli ATCC 25922 to MIC for Escherichia coli NR698 harboring imp gene deletion mutant; type: functional
[18] = test system: Escherichia coli; assay: microbe, parasite or virus in culture
[19] = Therapeutic index, ratio of IC50 for human HepG2 cells to MIC for Staphylococcus aureus ATCC 43300; type: cell-based; conditions: read-out: TI
[20] = molecular target: Cytochrome P450 2D6 (Homo sapiens, UniProt P10635); assay: Inhibition of human CYP2D6 using AMMC as substrate assessed as reduction in 3-[-2-(N,Ndiethylamino)ethyl]-7-hydroxy-4-methylcoumarin hydrochloride metabolite formation incubated for 30 mins by high throughput assay; type: ADME; conditions: read-out: INH
Chain of Cytochrome P450 2D6 (P10635 whole entry): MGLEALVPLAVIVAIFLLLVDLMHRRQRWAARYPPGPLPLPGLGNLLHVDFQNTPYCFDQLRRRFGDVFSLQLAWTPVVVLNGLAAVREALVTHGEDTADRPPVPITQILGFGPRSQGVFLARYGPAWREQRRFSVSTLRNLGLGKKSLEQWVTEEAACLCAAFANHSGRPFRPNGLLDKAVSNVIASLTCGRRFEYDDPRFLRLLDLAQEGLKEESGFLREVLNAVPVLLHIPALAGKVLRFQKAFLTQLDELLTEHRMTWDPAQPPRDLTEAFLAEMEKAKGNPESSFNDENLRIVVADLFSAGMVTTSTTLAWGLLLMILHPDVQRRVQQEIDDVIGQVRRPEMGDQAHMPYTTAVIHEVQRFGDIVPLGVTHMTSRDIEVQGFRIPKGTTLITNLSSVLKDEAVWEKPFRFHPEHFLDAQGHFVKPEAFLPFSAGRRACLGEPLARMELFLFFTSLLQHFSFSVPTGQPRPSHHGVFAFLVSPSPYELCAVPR

[21] = molecular target: Cytochrome P450 3A4 (Homo sapiens, UniProt P08684); assay: Inhibition of human CYP3A4 using BQ as substrate assessed as reduction in 7-hydroxyquinoline metabolite formation incubated for 30 mins by high throughput assay; type: ADME; conditions: read-out: INH
Chain of Cytochrome P450 3A4 (P08684 whole entry): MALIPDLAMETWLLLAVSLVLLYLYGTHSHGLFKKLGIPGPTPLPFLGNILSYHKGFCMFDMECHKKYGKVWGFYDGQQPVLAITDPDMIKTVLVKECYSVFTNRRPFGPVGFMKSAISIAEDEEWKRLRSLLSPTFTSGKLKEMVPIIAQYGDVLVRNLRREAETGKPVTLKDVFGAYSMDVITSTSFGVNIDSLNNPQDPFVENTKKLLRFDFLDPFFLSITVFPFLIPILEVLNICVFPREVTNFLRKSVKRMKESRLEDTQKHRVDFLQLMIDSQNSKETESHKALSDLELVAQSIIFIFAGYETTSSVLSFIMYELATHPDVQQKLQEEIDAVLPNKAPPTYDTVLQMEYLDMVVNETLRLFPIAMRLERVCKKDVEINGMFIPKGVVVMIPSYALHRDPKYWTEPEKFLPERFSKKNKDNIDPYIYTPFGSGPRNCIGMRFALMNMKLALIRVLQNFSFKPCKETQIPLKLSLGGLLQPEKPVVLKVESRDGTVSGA

[22] = Therapeutic index, ratio of IC50 for human MCF10A cells to MIC for Staphylococcus aureus ATCC 43300; type: cell-based, MCF-10A; conditions: read-out: TI
[23] = Therapeutic index, ratio of IC50 for HDF to MIC for Staphylococcus aureus ATCC 43300; conditions: human, read-out: TI
[24] = Primary phase half life in mouse liver microsomes at 0.5 ug/ml in presence of NADPH by UPLC analysis; type: ADME; conditions: read-out: alphat1/2
[25] = Cytotoxicity against HDF after 4 hrs by alamar blue assay; conditions: Homo sapiens
[26] = test system: HepG2; assay: Cytotoxicity against human HepG2 cells after 4 hrs by alamar blue assay; type: cell-based; conditions: HepG2, 4 h
[27] = Therapeutic index, ratio of IC50 for human MCF10 cells to MIC for Staphylococcus aureus ATCC 43300; type: cell-based; conditions: read-out: TI
[28] = Terminal half life in mouse liver microsomes at 0.5 ug/ml in presence of NADPH by UPLC analysis; type: ADME; conditions: read-out: beta t1/2

## CN(Cc1cnc2nc(N)nc(N)c2n1)c1ccc(C(=O)N[C@@H](CCC(=O)O)C(=O)O)cc1 [METHOTREXATE]
[1]
  MIC: > 40 µg/mL
[2]
  MIC: 1000 µM (≈ 454 µg/mL)
[3]
  MIC50: 20 µg/mL (≈ 44 µM)
  MIC90: 100 µg/mL (≈ 220 µM)
[4]
  MIC: > 40 µg/mL
[5]
  MIC: 64 µM (≈ 29.1 µg/mL)
[6]
  MIC: 40 µg/mL (≈ 88 µM)
[7]
  MIC: ≥ 40 µg/mL
[8]
  MIC: ≥ 40 µg/mL

## CCc1nc(N)nc(N)c1C#C[C@@H](C)c1cc(OC)cc(-c2ccc(C(=O)O)cc2)c1
[9]
  Activity: Active
[1]
  MIC: 10 µg/mL (≈ 24 µM)
[10]
  Activity: Active
[4]
  MIC: 0.0098 µg/mL (≈ 0.0235 µM)
[11]
  Activity: Non-toxic
[12]
  IC50: > 100 µM
[13]
  Activity: Non-toxic
[6]
  MIC: 0.0024 µg/mL (≈ 0.00576 µM)
[14]
  Activity: Active
[15]
  Activity: Active
[16]
  Activity: Active

## CCc1nc(N)nc(N)c1C#CCc1cc(-c2ccccc2C(=O)O)ccc1OC
[9]
  Activity: Active
[1]
  MIC: > 32 µg/mL
[10]
  Activity: Active
[17]
  Ratio: 2000
[4]
  MIC: > 20 µg/mL
[11]
  Activity: Non-toxic
[13]
  Activity: Non-toxic
[6]
  MIC: 20 µg/mL (≈ 49.7 µM)
[14]
  Activity: Active
[15]
  Activity: Active

## CCc1nc(N)nc(N)c1C#CCc1cc(-c2cccc(C(=O)O)c2)ccc1OC.O=C(O)C(F)(F)F
[9]
  Activity: Active
[1]
  MIC: > 20 µg/mL
[10]
  Activity: Active
[17]
  Ratio: 2000
[4]
  MIC: 0.625 µg/mL
[11]
  Activity: Non-toxic
[13]
  Activity: Non-toxic
[6]
  MIC: 0.0391 µg/mL
[14]
  Activity: Active
[15]
  Activity: Active

## COc1cc(Cc2cnc(N)nc2N)cc(OC)c1OC [TRIMETHOPRIM]
[1]
  MIC: 0.312 µg/mL (≈ 1.08 µM)
[6]
  MIC: 0.0098 µg/mL (≈ 0.0338 µM)
[18]
  MIC: 0.312 µg/mL (≈ 1.08 µM)

## CCc1nc(N)nc(N)c1C#C[C@H](C)c1cc(OC)cc(-c2ccc(C(=O)O)cc2)c1
[9]
  Activity: Active
[1]
  MIC: 10 µg/mL (≈ 24 µM)
[10]
  Activity: Active
[4]
  MIC: 0.0098 µg/mL (≈ 0.0235 µM)
[11]
  Activity: Non-toxic
[12]
  IC50: > 100 µM
[13]
  Activity: Non-toxic
[6]
  MIC: 0.0024 µg/mL (≈ 0.00576 µM)
[14]
  Activity: Active
[15]
  Activity: Active
[16]
  Activity: Active

## CCc1nc(N)nc(N)c1C#CCc1cc(-c2ccc(C(=O)O)cc2)ccc1OC
[19]
  selectivity ratio: > 500000
[20]
  IC50: > 50 µM
[9]
  Activity: Active
[21]
  IC50: > 50 µM
[22]
  selectivity ratio: > 500000
[1]
  MIC: > 20 µg/mL
[10]
  Activity: Active
[23]
  selectivity ratio: > 500000
[17]
  Ratio: 2000
[4]
  MIC: 0.0195 µg/mL (≈ 0.0485 µM)
[24]
  half-life at 0.5 ug/ml: 1.65 h
[25]
  IC50: > 500 µM
[12]
  IC50: > 100 µM
[26]
  IC50: > 500 µM
[6]
  MIC: 0.0098 µg/mL (≈ 0.0244 µM)
[14]
  Activity: Active
[27]
  selectivity ratio: > 500000
[15]
  Activity: Active
[28]
  half-life at 0.5 ug/ml: 1.45 h

## CCc1nc(N)nc(N)c1C#CCc1cc(OC)cc(-c2ccc(C(=O)O)cc2)c1.O=C(O)C(F)(F)F
[9]
  Activity: Active
[1]
  MIC: > 20 µg/mL
[10]
  Activity: Active
[4]
  MIC: 0.0195 µg/mL
[11]
  Activity: Non-toxic
[12]
  IC50: > 100 µM
[13]
  Activity: Non-toxic
[6]
  MIC: 0.0049 µg/mL
[14]
  Activity: Active
[15]
  Activity: Active
[16]
  Activity: Active

## CC(=O)O.CCc1nc(N)nc(N)c1C#C[C@H](C)c1cc(-c2ccc(C(=O)O)cc2)ccc1OC
[9]
  Activity: Active
[1]
  MIC: > 20 µg/mL
[10]
  Activity: Active
[4]
  MIC: 0.625 µg/mL
[11]
  Activity: Non-toxic
[12]
  IC50: > 100 µM
[13]
  Activity: Non-toxic
[6]
  MIC: 0.0391 µg/mL
[14]
  Activity: Active
[15]
  Activity: Active

## CC(=O)O.CCc1nc(N)nc(N)c1C#C[C@@H](C)c1cc(-c2ccc(C(=O)O)cc2)ccc1OC
[9]
  Activity: Active
[1]
  MIC: 20 µg/mL
[10]
  Activity: Active
[4]
  MIC: 0.0195 µg/mL
[11]
  Activity: Non-toxic
[12]
  IC50: > 100 µM
[13]
  Activity: Non-toxic
[6]
  MIC: 0.0012 µg/mL
[14]
  Activity: Active
[15]
  Activity: Active
